What was measured:
[1] = Solubility of berberine in NADES and reference solvents (HPLC-DAD); type: physicochemical
Experimental: Samples were placed on a magnetic stirrer (Stuart, Bibby Scientific Ltd., Stone, Staffordshire, UK) at 22 °C for 1 h, then centrifuged for 21 min at 13,000 rpm with a 5415 R centrifuge (Eppendorf, Hamburg, Germany). For quantitative measurement of solubilized berberine, a portion (100 μL) of the clear supernatant obtained after centrifugation was diluted 1:5 (v/v) in ethanol.
For quantification, stock standard solution of berberine (100 μg/mL) was prepared dissolving the analytical standard in methanol using an ultrasonic bath. A calibration curve was obtained injecting standard solutions of berberine at different concentrations, namely 50, 25, 10, 5 and 1 μg/mL. The following calibration curve was obtained: […] (R^2 = 0.9997). The Limit of Quantification (LOQ) was 1 μg/mL.
For HPLC-DAD analysis, an Agilent series 1260 HPLC instrument (Agilent, Cernusco Sul Naviglio, MI, Italy) equipped with a quaternary pump, a diode-array detector, an auto sampler and a column oven compartment was used. Analyses were performed on Eclipse XDB C8 column (5 μm, 4.6 mm × 150 mm, Agilent). The mobile phase was (A) water–formic acid (99:1 v/v) and (B) acetonitrile. A gradient program was used as follows: 0 → 11th min: A:B (90:10) → A:B (0:100) 11 → 12th min: A:B (0:100) → A:B (0:100) 12 → 12, 10th min: A:B (0:100) → A:B (90:10) 12, 10 → 14th min: A:B (90:10) → A:B (90:10). The mobile phase flow rate was 1 mL/min and the injection volume was 10 μL. The chromatogram was recorded at 350 nm and spectral data for all peaks were obtained in the range of 190–400 nm. The retention time of berberine under these analysis conditions was 6.16 min.

[2] = set-up: method as in PMID 26092760; settings: rats, single oral administration of berberine 200 mg/kg; cited from earlier work
[3] = human subjects, single oral dose of 500 mg of berberine hydrochloride, cited from earlier work; for time after which the plasma level reaches a plateau: plateau persisted up to 24 h
rat = settings: cited from earlier work
mice = settings: cited from earlier work

Molecule: COc1ccc2cc3[n+](cc2c1OC)CCc1cc2c(cc1-3)OCO2 [berberine, Berberine]
- solubility at 1 h ([1]; water, 22 °C): 2100 µg/mL
- total recovery of native compounds [2]: 22.83%
- plasma levels [3]: lower than 0.1 nM
- time after which the plasma level reaches a plateau [3]: one

Molecule: COc1cc2c(cc1O)CC[n+]1cc3c(OC)c(OC)ccc3cc1-2 [jatrorrhizine]
- plasma levels [3]: lower than 0.1 nM
- time after which the plasma level reaches a plateau [3]: 2 h

Molecule: CC(O)C(=O)O (centres unmarked) [lactic acid]
- LD50 (rat): 3543 mg/kg

Molecule: O=C(O)CC(O)C(=O)O (centres unmarked) [malic acid]
- LD50 (rat): 1600 mg/kg

Molecule: NC(N)=O [urea]
- LD50 (mice): 11,000 mg/kg

Molecule: Ethanol
- Berberine Solubility at 22 °C [1]: 2750 ± 50 µg/mL

Molecule: Water
- Berberine Solubility at 22 °C [1]: 2100 ± 50 µg/mL

Reference: publication PMC6150298, “Natural Deep Eutectic Solvents (NADES) to Enhance Berberine Absorption: An In Vivo Pharmacokinetic Study” (Molecules : A Journal of Synthetic Chemistry and Natural …, 2017)
